Tested on: COLO-800;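 note: growth inhibition of COLO-800 cells, read out with a cell viability assay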
Experiment: cells
Assay type: functional, cell-based, Homo sapiens
Settings: Homo sapiens, COLO-800
Description: SANGER: Inhibition of human COLO-800 cell growth in a cell viability assay.

SMILES | IC50
C#Cc1cccc(Nc2ncnc3cc(OCCOC)c(OCCOC)cc23)c1 [ERLOTINIB] | > 2 µM

Tested on: COLO-829
Experiment: cells
Assay type: functional, cell-based, Homo sapiens
Settings: Homo sapiens, COLO-829
Description: SANGER: Inhibition of human COLO-829 cell growth in a cell viability assay.

SMILES | IC50
C#Cc1cccc(Nc2ncnc3cc(OCCOC)c(OCCOC)cc23)c1 [ERLOTINIB] | > 2 µM

Tested on: CP66-MEL;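 note: growth inhibition of CP66-MEL cells determined in a cell viability assay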
Experiment: cells
Assay type: functional, cell-based, Homo sapiens
Settings: Homo sapiens, CP66-MEL
Description: SANGER: Inhibition of human CP66-MEL cell growth in a cell viability assay.

SMILES | IC50
C#Cc1cccc(Nc2ncnc3cc(OCCOC)c(OCCOC)cc23)c1 [ERLOTINIB] | > 2 µM

Tested on: CTV-1;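 note: growth inhibition of the cell line, read out with a cell viability assay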
Experiment: cells
Assay type: functional, cell-based, Homo sapiens
Settings: Homo sapiens, CTV-1
Description: SANGER: Inhibition of human CTV-1 cell growth in a cell viability assay.

SMILES | IC50
C#Cc1cccc(Nc2ncnc3cc(OCCOC)c(OCCOC)cc23)c1 [ERLOTINIB] | > 2 µM

Tested on: DSH1;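 note: growth inhibition of human DSH1 cells, measured with a cell viability readout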
Experiment: cells
Assay type: functional, cell-based, Homo sapiens
Settings: Homo sapiens, DSH1
Description: SANGER: Inhibition of human DSH1 cell growth in a cell viability assay.

SMILES | IC50
C#Cc1cccc(Nc2ncnc3cc(OCCOC)c(OCCOC)cc23)c1 [ERLOTINIB] | > 2 µM

Tested on: EC-GI-10
Experiment: cells
Assay type: functional, cell-based, Homo sapiens
Settings: Homo sapiens, EC-GI-10
Description: SANGER: Inhibition of human EC-GI-10 cell growth in a cell viability assay.

SMILES | IC50
C#Cc1cccc(Nc2ncnc3cc(OCCOC)c(OCCOC)cc23)c1 [ERLOTINIB] | > 2 µM

Tested on: ES1;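 note: growth inhibition of ES1 cells, read out with a cell viability assay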
Experiment: cells
Assay type: functional, cell-based, Homo sapiens
Settings: Homo sapiens, ES1
Description: SANGER: Inhibition of human ES1 cell growth in a cell viability assay.

SMILES | IC50
C#Cc1cccc(Nc2ncnc3cc(OCCOC)c(OCCOC)cc23)c1 [ERLOTINIB] | > 2 µM

Tested on: ES7;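 note: growth inhibition of cultured human ES7 cells, read out as cell viability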
Experiment: cells
Assay type: functional, cell-based, Homo sapiens
Settings: Homo sapiens, ES7
Description: SANGER: Inhibition of human ES7 cell growth in a cell viability assay.

SMILES | IC50
C#Cc1cccc(Nc2ncnc3cc(OCCOC)c(OCCOC)cc23)c1 [ERLOTINIB] | > 2 µM

Tested on: EW-18;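 note: growth inhibition of EW-18 cells, read out by a cell viability assay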
Experiment: cells
Assay type: functional, cell-based, Homo sapiens
Settings: Homo sapiens, EW-18
Description: SANGER: Inhibition of human EW-18 cell growth in a cell viability assay.

SMILES | IC50
C#Cc1cccc(Nc2ncnc3cc(OCCOC)c(OCCOC)cc23)c1 [ERLOTINIB] | > 2 µM

Tested on: EOL1;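 note: growth inhibition of EoL-1 cells, read out by a cell viability assay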
Experiment: cells
Assay type: functional, cell-based, Homo sapiens
Settings: Homo sapiens, EOL1
Description: SANGER: Inhibition of human EoL-1-cell cell growth in a cell viability assay.

SMILES | IC50
C#Cc1cccc(Nc2ncnc3cc(OCCOC)c(OCCOC)cc23)c1 [ERLOTINIB] | > 2 µM

Tested on: GB-1;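 note: growth of GB-1 cells judged by a viability assay, IC50 marks the concentration inhibiting growth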
Experiment: cells
Assay type: functional, cell-based, Homo sapiens
Settings: Homo sapiens, GB-1
Description: SANGER: Inhibition of human GB-1 cell growth in a cell viability assay.

SMILES | IC50
C#Cc1cccc(Nc2ncnc3cc(OCCOC)c(OCCOC)cc23)c1 [ERLOTINIB] | > 2 µM

Tested on: GT3TKB;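 note: growth inhibition of the cell line, read out with a cell viability assay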
Experiment: cells
Assay type: functional, cell-based, Homo sapiens
Settings: Homo sapiens, GT3TKB
Description: SANGER: Inhibition of human GT3TKB cell growth in a cell viability assay.

SMILES | IC50
C#Cc1cccc(Nc2ncnc3cc(OCCOC)c(OCCOC)cc23)c1 [ERLOTINIB] | > 2 µM

Tested on: HDLM-2;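 note: cell viability assay measuring suppression of HDLM-2 proliferation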
Experiment: cells
Assay type: functional, cell-based, Homo sapiens
Settings: Homo sapiens, HDLM-2
Description: SANGER: Inhibition of human HDLM-2 cell growth in a cell viability assay.

SMILES | IC50
C#Cc1cccc(Nc2ncnc3cc(OCCOC)c(OCCOC)cc23)c1 [ERLOTINIB] | > 2 µM

Tested on: KMOE-2;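 note: growth inhibition of human KMOE-2 cells, read out with a cell viability assay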
Experiment: cells
Assay type: functional, cell-based, Homo sapiens
Settings: Homo sapiens, KMOE-2
Description: SANGER: Inhibition of human KMOE-2 cell growth in a cell viability assay.

SMILES | IC50
C#Cc1cccc(Nc2ncnc3cc(OCCOC)c(OCCOC)cc23)c1 [ERLOTINIB] | > 2 µM

Tested on: KNS-81-FD;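 note: growth inhibition of KNS-81-FD cells, read out with a cell viability assay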
Experiment: cells
Assay type: functional, cell-based, Homo sapiens
Settings: Homo sapiens, KNS-81-FD
Description: SANGER: Inhibition of human KNS-81-FD cell growth in a cell viability assay.

SMILES | IC50
C#Cc1cccc(Nc2ncnc3cc(OCCOC)c(OCCOC)cc23)c1 [ERLOTINIB] | > 2 µM

Tested on: LAN-6;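 note: growth inhibition of LAN-6 cells, determined with a cell viability assay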
Experiment: cells
Assay type: functional, cell-based, Homo sapiens
Settings: Homo sapiens, LAN-6
Description: SANGER: Inhibition of human LAN-6 cell growth in a cell viability assay.

SMILES | IC50
C#Cc1cccc(Nc2ncnc3cc(OCCOC)c(OCCOC)cc23)c1 [ERLOTINIB] | > 2 µM

Tested on: LB1047-RCC;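 note: inhibition of cell growth, determined with a cell viability assay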
Experiment: cells
Assay type: functional, cell-based, Homo sapiens
Settings: Homo sapiens, LB1047-RCC
Description: SANGER: Inhibition of human LB1047-RCC cell growth in a cell viability assay.

SMILES | IC50
C#Cc1cccc(Nc2ncnc3cc(OCCOC)c(OCCOC)cc23)c1 [ERLOTINIB] | > 2 µM

Tested on: LS-123
Experiment: cells
Assay type: functional, cell-based, Homo sapiens
Settings: Homo sapiens, LS-123
Description: SANGER: Inhibition of human LS-123 cell growth in a cell viability assay.

SMILES | IC50
C#Cc1cccc(Nc2ncnc3cc(OCCOC)c(OCCOC)cc23)c1 [ERLOTINIB] | > 2 µM

Tested on: LXF-289 cell line
Experiment: cells
Assay type: functional, cell-based, Homo sapiens
Settings: Homo sapiens, LXF-289
Description: SANGER: Inhibition of human LXF-289 cell growth in a cell viability assay.

SMILES | IC50
C#Cc1cccc(Nc2ncnc3cc(OCCOC)c(OCCOC)cc23)c1 [ERLOTINIB] | > 2 µM

Tested on: MHH-NB-11;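 note: growth inhibition of human MHH-NB-11 cells, read out by a cell viability assay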
Experiment: cells
Assay type: functional, cell-based, Homo sapiens
Settings: Homo sapiens, MHH-NB-11
Description: SANGER: Inhibition of human MHH-NB-11 cell growth in a cell viability assay.

SMILES | IC50
C#Cc1cccc(Nc2ncnc3cc(OCCOC)c(OCCOC)cc23)c1 [ERLOTINIB] | > 2 µM

Tested on: MHH-PREB-1;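 note: cell viability assay measuring inhibition of proliferation of human MHH-PREB-1 cells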
Experiment: cells
Assay type: functional, cell-based, Homo sapiens
Settings: Homo sapiens, MHH-PREB-1
Description: SANGER: Inhibition of human MHH-PREB-1 cell growth in a cell viability assay.

SMILES | IC50
C#Cc1cccc(Nc2ncnc3cc(OCCOC)c(OCCOC)cc23)c1 [ERLOTINIB] | > 2 µM

Tested on: ML-2;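 note: growth inhibition of ML-2 cells, measured with a cell viability readout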
Experiment: cells
Assay type: functional, cell-based, Homo sapiens
Settings: Homo sapiens, ML-2
Description: SANGER: Inhibition of human ML-2 cell growth in a cell viability assay.

SMILES | IC50
C#Cc1cccc(Nc2ncnc3cc(OCCOC)c(OCCOC)cc23)c1 [ERLOTINIB] | > 2 µM

Tested on: NB69;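 note: growth inhibition of NB69 cells, determined by a cell viability assay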
Experiment: cells
Assay type: functional, cell-based, Homo sapiens
Settings: Homo sapiens, NB69
Description: SANGER: Inhibition of human NB69 cell growth in a cell viability assay.

SMILES | IC50
C#Cc1cccc(Nc2ncnc3cc(OCCOC)c(OCCOC)cc23)c1 [ERLOTINIB] | > 2 µM

Tested on: NCI-H1648;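 note: cell viability assay measuring inhibition of NCI-H1648 cell growth, from the Sanger screening data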
Experiment: cells
Assay type: functional, cell-based, Homo sapiens
Settings: Homo sapiens, NCI-H1648
Description: SANGER: Inhibition of human NCI-H1648 cell growth in a cell viability assay.

SMILES | IC50
C#Cc1cccc(Nc2ncnc3cc(OCCOC)c(OCCOC)cc23)c1 [ERLOTINIB] | 0.04 µM

Tested on: NCI-H510A;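 note: growth inhibition of NCI-H510A cells, read out with a cell viability assay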
Experiment: cells
Assay type: functional, cell-based, Homo sapiens
Settings: Homo sapiens, NCI-H510A
Description: SANGER: Inhibition of human NCI-H510A cell growth in a cell viability assay.

SMILES | IC50
C#Cc1cccc(Nc2ncnc3cc(OCCOC)c(OCCOC)cc23)c1 [ERLOTINIB] | > 2 µM

Tested on: SNU1;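 note: growth inhibition of human NCI-SNU-1 cells, measured with a cell viability assay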
Experiment: cells
Assay type: functional, cell-based, Homo sapiens
Settings: Homo sapiens, SNU1
Description: SANGER: Inhibition of human NCI-SNU-1 cell growth in a cell viability assay.

SMILES | IC50
C#Cc1cccc(Nc2ncnc3cc(OCCOC)c(OCCOC)cc23)c1 [ERLOTINIB] | > 2 µM

Tested on: NKM-1;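 note: growth inhibition of NKM-1 cells, read out with a cell viability assay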
Experiment: cells
Assay type: functional, cell-based, Homo sapiens
Settings: Homo sapiens, NKM-1
Description: SANGER: Inhibition of human NKM-1 cell growth in a cell viability assay.

SMILES | IC50
C#Cc1cccc(Nc2ncnc3cc(OCCOC)c(OCCOC)cc23)c1 [ERLOTINIB] | > 2 µM

Tested on: ONS-76;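 note: growth inhibition of human ONS-76 cells, read out with a cell viability assay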
Experiment: cells
Assay type: functional, cell-based, Homo sapiens
Settings: Homo sapiens, ONS-76
Description: SANGER: Inhibition of human ONS-76 cell growth in a cell viability assay.

SMILES | IC50
C#Cc1cccc(Nc2ncnc3cc(OCCOC)c(OCCOC)cc23)c1 [ERLOTINIB] | > 2 µM

Tested on: RPMI-8866
Experiment: cells
Assay type: functional, cell-based, Homo sapiens
Settings: Homo sapiens, RPMI-8866
Description: SANGER: Inhibition of human RPMI-8866 cell growth in a cell viability assay.

SMILES | IC50
C#Cc1cccc(Nc2ncnc3cc(OCCOC)c(OCCOC)cc23)c1 [ERLOTINIB] | > 2 µM

Tested on: SCC-15;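 note: growth inhibition of SCC-15 cells, read out with a cell viability assay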
Experiment: cells
Assay type: functional, cell-based, Homo sapiens
Settings: Homo sapiens, SCC-15
Description: SANGER: Inhibition of human SCC-15 cell growth in a cell viability assay.

SMILES | IC50
C#Cc1cccc(Nc2ncnc3cc(OCCOC)c(OCCOC)cc23)c1 [ERLOTINIB] | > 2 µM

Tested on: SF-126;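 note: growth inhibition of human SF126 cells, read out with a cell viability assay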
Experiment: cells
Assay type: functional, cell-based, Homo sapiens
Settings: Homo sapiens, SF-126
Description: SANGER: Inhibition of human SF126 cell growth in a cell viability assay.

SMILES | IC50
C#Cc1cccc(Nc2ncnc3cc(OCCOC)c(OCCOC)cc23)c1 [ERLOTINIB] | > 2 µM

Tested on: SK-UT-1;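 note: growth inhibition of SK-UT-1 cells, measured by a cell viability assay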
Experiment: cells
Assay type: functional, cell-based, Homo sapiens
Settings: Homo sapiens, SK-UT-1
Description: SANGER: Inhibition of human SK-UT-1 cell growth in a cell viability assay.

SMILES | IC50
C#Cc1cccc(Nc2ncnc3cc(OCCOC)c(OCCOC)cc23)c1 [ERLOTINIB] | > 2 µM

Tested on: SNB-75;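 note: cell viability assay measuring growth inhibition of human SNB-75 cells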
Experiment: cells
Assay type: functional, cell-based, Homo sapiens
Settings: Homo sapiens, SNB-75
Description: SANGER: Inhibition of human SNB75 cell growth in a cell viability assay.

SMILES | IC50
C#Cc1cccc(Nc2ncnc3cc(OCCOC)c(OCCOC)cc23)c1 [ERLOTINIB] | > 2 µM

Tested on: SW872;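 note: growth inhibition of SW872 cells, read out by a viability assay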
Experiment: cells
Assay type: functional, cell-based, Homo sapiens
Settings: Homo sapiens, SW872
Description: SANGER: Inhibition of human SW872 cell growth in a cell viability assay.

SMILES | IC50
C#Cc1cccc(Nc2ncnc3cc(OCCOC)c(OCCOC)cc23)c1 [ERLOTINIB] | > 2 µM

Tested on: 697
Experiment: cells
Assay type: functional, cell-based, Homo sapiens
Settings: Homo sapiens
Description: SANGER: Inhibition of human 697 cell growth in a cell viability assay.

SMILES | IC50
C#Cc1cccc(Nc2ncnc3cc(OCCOC)c(OCCOC)cc23)c1 [ERLOTINIB] | > 2 µM

Tested on: A253 cell line;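 note: growth inhibition of A253 cells, read out with a cell viability assay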
Experiment: cells
Assay type: functional, cell-based, Homo sapiens
Settings: Homo sapiens, A253
Description: SANGER: Inhibition of human A253 cell growth in a cell viability assay.

SMILES | IC50
C#Cc1cccc(Nc2ncnc3cc(OCCOC)c(OCCOC)cc23)c1 [ERLOTINIB] | > 2 µM

Tested on: BB49-HNC;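 note: cell viability assay read-out, reported as inhibition of BB49-HNC cell growth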
Experiment: cells
Assay type: functional, cell-based, Homo sapiens
Settings: Homo sapiens, BB49-HNC
Description: SANGER: Inhibition of human BB49-HNC cell growth in a cell viability assay.

SMILES | IC50
C#Cc1cccc(Nc2ncnc3cc(OCCOC)c(OCCOC)cc23)c1 [ERLOTINIB] | > 2 µM

Tested on: TE-12;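 note: growth inhibition of TE-12 cells, read out by a cell viability assay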
Experiment: cells
Assay type: functional, cell-based, Homo sapiens
Settings: Homo sapiens, TE-12
Description: SANGER: Inhibition of human TE-12 cell growth in a cell viability assay.

SMILES | IC50
C#Cc1cccc(Nc2ncnc3cc(OCCOC)c(OCCOC)cc23)c1 [ERLOTINIB] | 0.0544 µM

Tested on: TE-8;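 note: growth inhibition of TE-8 cells, measured with a cell viability readout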
Experiment: cells
Assay type: functional, cell-based, Homo sapiens
Settings: Homo sapiens, TE-8
Description: SANGER: Inhibition of human TE-8 cell growth in a cell viability assay.

SMILES | IC50
C#Cc1cccc(Nc2ncnc3cc(OCCOC)c(OCCOC)cc23)c1 [ERLOTINIB] | > 2 µM

Tested on: TGBC1TKB;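 note: growth inhibition of TGBC1TKB cells, read out by a cell viability assay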
Experiment: cells
Assay type: functional, cell-based, Homo sapiens
Settings: Homo sapiens, TGBC1TKB
Description: SANGER: Inhibition of human TGBC1TKB cell growth in a cell viability assay.

SMILES | IC50
C#Cc1cccc(Nc2ncnc3cc(OCCOC)c(OCCOC)cc23)c1 [ERLOTINIB] | > 2 µM

Tested on: U-266
Experiment: cells
Assay type: functional, cell-based, Homo sapiens
Settings: Homo sapiens, U-266
Description: SANGER: Inhibition of human U-266 cell growth in a cell viability assay.

SMILES | IC50
C#Cc1cccc(Nc2ncnc3cc(OCCOC)c(OCCOC)cc23)c1 [ERLOTINIB] | > 2 µM

Tested on: VA-ES-BJ;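 note: growth inhibition of the VA-ES-BJ cell line, read out by a cell viability assay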
Experiment: cells
Assay type: functional, cell-based, Homo sapiens
Settings: Homo sapiens, VA-ES-BJ
Description: SANGER: Inhibition of human VA-ES-BJ cell growth in a cell viability assay.

SMILES | IC50
C#Cc1cccc(Nc2ncnc3cc(OCCOC)c(OCCOC)cc23)c1 [ERLOTINIB] | > 2 µM

Tested on: no-11;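 note: growth inhibition of human NO-11 cells, read out with a cell viability assay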
Experiment: cells
Assay type: functional, cell-based, Homo sapiens
Settings: Homo sapiens
Description: SANGER: Inhibition of human no-11 cell growth in a cell viability assay.

SMILES | IC50
C#Cc1cccc(Nc2ncnc3cc(OCCOC)c(OCCOC)cc23)c1 [ERLOTINIB] | > 2 µM

Tested on: CCRF-CEM;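 note: inhibition of CCRF-CEM cell growth, measured by a cell viability assay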
Experiment: cells
Assay type: functional, cell-based, Homo sapiens
Settings: Homo sapiens, CCRF-CEM
Description: SANGER: Inhibition of human CCRF-CEM cell growth in a cell viability assay.

SMILES | IC50
C#Cc1cccc(Nc2ncnc3cc(OCCOC)c(OCCOC)cc23)c1 [ERLOTINIB] | > 2 µM

Tested on: COLO-668
Experiment: cells
Assay type: functional, cell-based, Homo sapiens
Settings: Homo sapiens, COLO-668
Description: SANGER: Inhibition of human COLO-668 cell growth in a cell viability assay.

SMILES | IC50
C#Cc1cccc(Nc2ncnc3cc(OCCOC)c(OCCOC)cc23)c1 [ERLOTINIB] | > 2 µM

Tested on: COLO-684
Experiment: cells
Assay type: functional, cell-based, Homo sapiens
Settings: Homo sapiens, COLO-684
Description: SANGER: Inhibition of human COLO-684 cell growth in a cell viability assay.

SMILES | IC50
C#Cc1cccc(Nc2ncnc3cc(OCCOC)c(OCCOC)cc23)c1 [ERLOTINIB] | > 2 µM

From ChEMBL document CHEMBL1201861, “Genomics of Drug Sensitity in Cancer screening data, Wellcome Trust Sanger Institute”
